Assays:
[1] = Induction of rat beta cell proliferation after 3 days relative to control; assay type: functional, Pancreatic beta cell
[2] = organism: Rattus norvegicus; test: Increase in rat beta cell mass in rat T1DM model after 45 days; assay type: functional
[3] = Induction of rat beta cell proliferation assessed as increase in PDX1 expressing cells relative to control; assay type: functional, Pancreatic beta cell

**Q.** With `COC(=O)C1=C(C)NC(C)=C([N+](=O)[O-])C1c1ccccc1C(F)(F)F` (centres undefined) as the compound, how does the “fold change (FC)” value [1] read?
**A.** The value was 2.5.

**Q.** Which results are given for `CN1CCN(Cc2ccc(NC(=O)Cc3ccc(Oc4cc(NC(=O)C5CC5)ncn4)cc3)cc2C(F)(F)F)CC1`?
**A.** Activity [2]: 50%; Activity [1]: <=4%

**Q.** With `Nc1ncnc2nc(-c3ccc(N4CCOCC4)nc3)cc(-c3cccc(Br)c3)c12` as the compound, how does the “fold change (FC)” value [3] read?
**A.** Its value is 2.
